pEC50: −log10 of the molar value.

Usually pEC50 stands for the negative decadic logarithm of the EC50, by convention in mol/L. Low readings indicate a large EC50, high ones a small EC50.

For this assay, the target named is T1, human CB2 (hCB2) receptor (Homo sapiens, UniProt P34972).
T1 construct: expressed in transfected cells; host or cells: CHO-K1
T1 sequence (P34972 whole entry): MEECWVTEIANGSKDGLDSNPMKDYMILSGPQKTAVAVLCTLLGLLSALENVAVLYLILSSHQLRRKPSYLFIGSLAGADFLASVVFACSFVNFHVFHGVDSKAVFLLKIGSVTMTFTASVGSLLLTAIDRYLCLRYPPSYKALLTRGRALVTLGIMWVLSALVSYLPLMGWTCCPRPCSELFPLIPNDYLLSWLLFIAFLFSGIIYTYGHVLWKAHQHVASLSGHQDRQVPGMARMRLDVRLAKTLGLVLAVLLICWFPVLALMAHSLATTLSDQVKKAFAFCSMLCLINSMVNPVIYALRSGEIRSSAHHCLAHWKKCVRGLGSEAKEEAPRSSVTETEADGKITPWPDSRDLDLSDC
Kind of assay: Inhibition of forskolin-activated cAMP production upon activation of human CB2 receptor (HTRF). The class given is cell-based. The note with it: CHO-K1 cells stably transfected with hCB2; 15 μM forskolin; pEC50=-log(EC50); relative to WIN55212-2. The procedure: D. Pharmacological Examples D.1 Inhibition of cAMP in Response to Activation of the Human CB2 Receptors
Functional activity of the test compounds was assessed by measuring their potency to inhibit forskolin-activated cAMP production upon activation of human CB2 (hCB2) receptor through homogenous time resolved fluorescence (HTRF) assays.
CHO-K1 cells stably transfected with hCB2 were grown up to 80-90% confluence in T175 Falcon flasks in DMEM/NUT MIX F-12 culture medium complemented with 2% Solution A (5.10^6 IU/l penicillin G, 5 g/l streptomycin sulphate, 5.5 g/l pyruvate, 14.6 g/l L-glutamine, 1M NaOH) and 10% foetal calf serum. Before the experiments, medium was removed, cells were washed with PBS/EDTA (140 mM NaCl, 1 mM Na2-EDTA, 8 mM Na2HPO4.2H2O, 8.5 mM KH2PO4, 2.7 mM KCl, 21 mM glucose), resuspended in stimulation buffer (HBSS 1×, IBMX 1 mM, Hepes 5 mM, MgCl2 10 mM, BSA 0.1%, pH 7.4). Cells were diluted to a concentration of 10^6 cells/ml for hCB2 experiments. Assays were performed using the cAMP Dynamic HTRF kit (CIS bio international, France) according to the recommendations of the manufacturer.
For CB2, each well of a 384 flat bottom black polystyrene assay plate (Costar) was filled with 10 μl stimulation buffer containing 15 μM forskolin and either test compound (in 3% DMSO), 3% DMSO or 10 μM Win55212-2 (in 3% DMSO). Then, 20 μl of the diluted hCB2-CHO-K1 cells was added (20,000 cells/well). After 30 minutes incubation in dark at room temperature, 10 μl cAMP-XL665 and 10 μl anti-cAMP cryptate (both at a final dilution of 1/100) was added to the cells.
After equilibration of the reaction mixtures for 1 to 24 hours in dark at room temperature, fluorescence was measured at 665 nm and 620 nm using a Discovery microplate fluorescence counter (Perkin Elmer), and the signal ratio of 665 nm/620 nm was calculated. The signal ratios of the test compounds were expressed relative to the signal ratios of the DMSO control (maximal signal ratio, no inhibition of cAMP) and WIN55212-2 for hCB2, respectively (minimal signal ratio, maximal inhibition of cAMP). From the dose response curves generated for each test compound, the dose at which 50% of the maximal inhibition of cAMP level is observed (EC50, expressed in the Table as pEC50=−log (EC50) values) and the level of inhibition reached with 10 μM of the test compound compared to WIN55212-2 (for hCB2) was calculated.
A general note: Changes in cAMP serve as a functional read-out for many G protein-coupled receptors.
With `CC(=O)N1CCC(Cn2c(C(C)(C)C)nc3cc(S(=O)(=O)CCCO)ccc32)CC1` [compound 19], the “CB2 pEC50” value was 6.84.

For `CC(=O)N1CCC(Cn2c(C(C)(C)C)nc3cc(S(=O)(=O)c4cccc(OCCCC#N)c4)ccc32)CC1` [compound 96], the pEC50 is 8.45.

In turn, `CC(=O)N1CCC(Cn2c(C(C)(C)C)nc3cc(SCC4CCC4)ccc32)CC1` [compound 41] gave a pEC50 of 8.93.

For `CC(=O)N1CCC(Cn2c(C(C)(C)C)nc3cc(S(=O)(=O)c4ccccc4C(F)(F)F)ccc32)CC1` [compound 113], the pEC50 was about 8.60.

The compound `CC(=O)N1CCC(Cn2c(C(C)(C)C)nc3cc(S(=O)(=O)c4cccc(OC(C)C)c4)ccc32)CC1` [compound 100] showed a pEC50 of 8.63.

`COc1ccccc1S(=O)(=O)c1ccc2c(c1)nc(C(C)(C)C)n2CC1CCN(C(C)=O)CC1` [compound 109] had a pEC50 of about 8.06.

On to `CC(=O)N1CCC(Cn2c(C(C)(C)C)nc3cc(S(=O)(=O)CCCC(F)(F)F)ccc32)CC1` [compound 3], for which the pEC50 was 7.81.

For `CC(=O)N1CCC(Cn2c(C(C)(C)C)nc3cc(SCCCO)ccc32)CC1` [compound 13], the pEC50 is 8.06.

`CC(=O)N1CCC(Cn2c(C(C)(C)C)nc3cc(S(=O)(=O)c4ccoc4)ccc32)CC1` [compound 103] gave a pEC50 of about 8.42.

`CC(C)(C)c1nc2cc(SCC3CC3)ccc2n1CC1CCN(C=O)CC1` [compound 37] gave a pEC50 of 8.88.

With `CC(=O)N1CCC(Cn2c(C(C)(C)C)nc3cc(Sc4cccc(N(C)C)c4)ccc32)CC1` [compound 97], the pEC50 is 8.32.

In turn, `CC(=O)N1CCC(Cn2c(C(C)(C)C)nc3cc(S(=O)(=O)Cc4ccc(N(C)C(C)=O)cc4)ccc32)CC1` [compound 80] gave a negative-log EC50 (pEC50) of about 7.33.

`CC(=O)N1CCC(Cn2c(C(C)(C)C)nc3cc(S(=O)(=O)c4ccc(N)c(Cl)c4)ccc32)CC1` [compound 110] gave a pEC50 of about 8.00.

The compound `CC(=O)N1CCC(Cn2c(C(C)(C)C)nc3cc(Sc4ccccn4)ccc32)CC1` [compound 50] gave a pEC50 of 8.11.

`CC(=O)N1CCC(Cn2c(C(C)(C)C)nc3cc(S(=O)(=O)C4CCCC4)ccc32)CC1` [compound 35]: the “CB2 pEC50” value stood at 8.49.

Turning to `CC(=O)N1CCC(Cn2c(C(C)(C)C)nc3cc(S(=O)(=O)c4c(F)cccc4F)ccc32)CC1` [compound 111], the pEC50 is about 7.78.

On to `CC(=O)N1CCC(Cn2c(C(C)(C)C)nc3cc(S(=O)(=O)C(C)(C)C#N)ccc32)CC1` [compound 42], for which the pEC50 was 8.26.

As for `CC(=O)N1CCC(Cn2c(C(C)(C)C)nc3cc(S(=O)(=O)c4c(C)cccc4C)ccc32)CC1` [compound 115], the pEC50 was about 8.08.

The compound `CC(=O)N1CCC(Cn2c(C(C)(C)C)nc3cc(SCCc4ccc(F)cc4)ccc32)CC1` [compound 52] had a pEC50 of 8.40.

With `CCC(CC)Sc1ccc2c(c1)nc(C(C)(C)C)n2CC1CCN(C(C)=O)CC1` [compound 51], the pEC50 is 9.10.

In turn, `CC(=O)N1CCC(Cn2c(C(C)(C)C)nc3cc(S(=O)(=O)c4ccc(C(F)(F)F)cc4Cl)ccc32)CC1` [compound 107] had a pEC50 of about 8.13.

On to `CC(=O)N1CCC(Cn2c(C(C)(C)C)nc3cc(S(=O)(=O)c4ccc(OC(F)(F)F)cc4)ccc32)CC1` [compound 104], for which the pEC50 is about 7.63.

With `COc1ccc(CS(=O)(=O)c2ccc3c(c2)nc(C(C)(C)C)n3CC2CCN(C(C)=O)CC2)cc1` [compound 12], the pEC50 was 6.80.

The compound `COCCSc1ccc2c(c1)nc(C(C)(C)C)n2CC1CCN(C=O)CC1` [compound 22] had a pEC50 of 8.15.

`CC(=O)N1CCC(Cn2c(C(C)(C)C)nc3cc(S(=O)(=O)Cc4ccc([N+](=O)[O-])cc4)ccc32)CC1` [compound 69] gave a negative-log EC50 (pEC50) of 8.23.

Take `CC(=O)N1CCC(Cn2c(C(C)(C)C)nc3cc(Sc4ccncc4)ccc32)CC1` [compound 33]: the pEC50 was 8.35.

As for `CC(=O)N1CCC(Cn2c(C(C)(C)C)nc3cc(Sc4cccc(OCCCC#N)c4)ccc32)CC1` [compound 95], the pEC50 is about 8.57.

With `CC(C)(C)c1nc2cc(SCCCO)ccc2n1CC1CCN(C=O)CC1` [compound 21], the pEC50 was 8.27.

`CC(=O)N1CCC(Cn2c(C(C)(C)C)nc3cc(Sc4cccnc4)ccc32)CC1` [compound 54] gave a pEC50 of 8.64.

The compound `CC(=O)N1CCC(Cn2c(C(C)(C)C)nc3cc(Sc4ccccc4Cl)ccc32)CC1` [compound 70] showed a pEC50 of 10.06.

`COCCCOc1cccc(S(=O)(=O)c2ccc3c(c2)nc(C(C)(C)C)n3CC2CCN(C(C)=O)CC2)c1` [compound 86] showed a pEC50 of 8.27.

For `CC(C)S(=O)(=O)c1ccc2c(c1)nc(C(C)(C)C)n2CC1CCS(=O)(=O)CC1` [compound 30], the pEC50 was 7.30.

`COc1ccc(CSc2ccc3c(c2)nc(C(C)(C)C)n3CC2CCN(C(C)=O)CC2)cc1` [compound 11] had a pEC50 of 7.69.

In the case of `CC(=O)N1CCC(Cn2c(C(C)(C)C)nc3cc(S(=O)(=O)c4ccccc4C#N)ccc32)CC1` [compound 94], the pEC50 was about 8.48.

Take `CCC(CC)S(=O)(=O)c1ccc2c(c1)nc(C(C)(C)C)n2CC1CCN(C(C)=O)CC1` [compound 61]: the pEC50 is 8.60.

`CCCC(CCC)Sc1ccc2c(c1)nc(C(C)(C)C)n2CC1CCN(C(C)=O)CC1` [compound 65]: the pEC50 was 8.76.

As to `COc1cccc(OC)c1S(=O)(=O)c1ccc2c(c1)nc(C(C)(C)C)n2CC1CCN(C(C)=O)CC1` [compound 102], the negative logarithm of the EC50 (pEC50) was about 8.46.

`COc1ccc(S(=O)(=O)c2ccc3c(c2)nc(C(C)(C)C)n3CC2CCN(C(C)=O)CC2)c(OC)c1` [compound 106]: the pEC50 was about 7.64.

Turning to `CC(=O)N1CCC(Cn2c(C(C)(C)C)nc3cc(S(=O)(=O)CCCC#N)ccc32)CC1` [compound 10], the pEC50 was 7.66.

`CC(=O)N1CCC(Cn2c(C(C)(C)C)nc3cc(S(=O)(=O)CCc4ccc(F)cc4)ccc32)CC1` [compound 56] showed a pEC50 of 8.47.

For `CC(=O)N1CCC(Cn2c(C(C)(C)C)nc3cc(SC4CCCC4)ccc32)CC1` [compound 32], the pEC50 was 8.89.

On to `CC(=O)N1CCC(Cn2c(C(C)(C)C)nc3cc(S(=O)(=O)c4c(F)cc(F)cc4F)ccc32)CC1` [compound 114], for which the pEC50 is about 8.38.

On to `CC(=O)N1CCC(Cn2c(C(C)(C)C)nc3cc(S(=O)(=O)C(C)C)ccc32)CC1` [compound 64], for which the pEC50 is 7.89.

As to `CC(=O)N1CCC(Cn2c(C(C)(C)C)nc3cc(SCc4ccc(F)cc4)ccc32)CC1` [compound 17], the pEC50 was 9.10.

Take `CCS(=O)(=O)c1ccc2c(c1)nc(C(C)(C)C)n2CC1CCN(C(C)=O)CC1` [compound 1]: the pEC50 was 8.07.

On to `CC(=O)N1CCC(Cn2c(C(C)(C)C)nc3cc(Sc4cccc(Cl)c4)ccc32)CC1` [compound 89], for which the pEC50 is about 9.96.

With `CC(=O)N1CCC(Cn2c(C(C)(C)C)nc3cc(Sc4cccs4)ccc32)CC1` [compound 66], the pEC50 is 8.65.

The compound `COc1cccc(OC)c1Sc1ccc2c(c1)nc(C(C)(C)C)n2CC1CCN(C(C)=O)CC1` [compound 101] showed a pEC50 of about 9.29.

`CC(=O)N1CCC(Cn2c(C(C)(C)C)nc3cc(S(=O)(=O)c4ccc(C#N)cc4)ccc32)CC1` [compound 23]: the pEC50 is 8.43.

`COCCS(=O)(=O)c1ccc2c(c1)nc(C(C)(C)C)n2CC1CCN(C(C)=O)CC1` [compound 20]: the “CB2 pEC50” value was found to be 7.59.

As for `CC(=O)N1CCC(Cn2c(C(C)(C)C)nc3cc(Sc4cccc(C(F)(F)F)c4)ccc32)CC1` [compound 91], the pEC50 was about 9.08.

`CC(=O)N1CCC(Cn2c(C(C)(C)C)nc3cc(S(=O)(=O)c4cccnc4)ccc32)CC1` [compound 62] had a pEC50 of 8.28.

`CC(=O)N1CCC(Cn2c(C(C)(C)C)nc3cc(S(=O)(=O)c4cccc(N(C)C)c4)ccc32)CC1` [compound 98] showed a pEC50 of 8.34.

`CC(=O)N1CCC(Cn2c(C(C)(C)C)nc3cc(Sc4ccc(F)cc4)ccc32)CC1` [compound 58] gave a pEC50 of 8.07.

With `CC(=O)N1CCC(Cn2c(C(C)(C)C)nc3cc(S(=O)(=O)c4cccc(N5CCOCC5)c4)ccc32)CC1` [compound 116], the pEC50 is about 7.35.

`CC(=O)Nc1ccc(CS(=O)(=O)c2ccc3c(c2)nc(C(C)(C)C)n3CC2CCN(C(C)=O)CC2)cc1` [compound 79] showed a pEC50 of 8.23.

The record behind these values is patent US8193369B2, “Benzimidazole cannabinoid agonists” (Janssen Pharmaceutica NV, priority 2007, dated 2012).
